Measurements taken from US10787444B2, “Compounds for the modulation of myc activity” (Syros Pharmaceuticals, Inc., priority 2015, dated 2020).
Counter-ions that a name gives are not always drawn. Like-named read-outs stand apart in the source and are kept apart here.

Columns and labels:
c-Myc/Max/Ebox DNA = target: T1, c-Myc/Max/Ebox DNA (Homo sapiens, UniProt P01106); experiment: c-Myc/Max/Ebox DNA AlphaScreen Assay; format: binding; settings: calculated IC50 class
T1 construct: his6 (cleaved yes)
Description: Compounds of the invention were assayed for c-Myc/Max/EBox activity as described in the following protocol. Human his6-c-Myc and his6-Max were used with biotinylated DNA containing a single Ebox sequence (biotin[…]) purchased from MWG Operon. Free c-Myc was generated from his6-c-Myc through thrombin cleavage of the his6 tag. For 384-well plate assays, 10 μL of a 2× solution of free c-Myc (20 nM final), Ni^2+ coated Acceptor Beads (25 μg/ml final), and biotinylated Ebox oligo (10 nM final) were added to 384-well plates with a Biotek EL406 liquid handler. 50 nL of compounds from stock plates were added by pin transfer using a Janus Workstation (PerkinElmer), allowing the compounds to interact with c-Myc prior to c-Myc binding with Max. In the current assay, DMSO was not allowed to exceed 2% v/v of the assay. 10 μl of 2× master mix containing streptavidin-coated donor beads (25 μg/ml final) and his6-Max (5 nM) were added. AlphaScreen measurements were performed on an Envision plate reader (PerkinElmer) utilizing the manufacturer's protocol.
Both master mixes were made in room temperature assay buffer (50 mM HEPES, 150 mM NaCl, 0.2% w/v BSA, 0.02% w/v Tween20, 40 μg/ml glycogen, 500 μM DTT, pH 8.0, wherein both DTT and glycogen were added fresh). Alpha beads were added to respective master solutions. All subsequent steps were performed in low light conditions. Solution 1:2× solution of components with final concentrations of c-Myc Ni-coated Acceptor Beads (25 μg/ml), and biotinylated Ebox oligo (10 nM). Solution 2:2× solution of streptavidin-coated donor beads (25 μg/ml final) and his6-Max 10 μL. […] 50 nL of compounds from stock plates were added by pin transfer using a Janus Workstation. Solution 2 (10 μl) was added with the liquid handler. Plates were sealed with foil to block light exposure and prevent evaporation. Plates were very briefly centrifuged followed by 2 hour incubation. […] Excitation was at 680 nm for donor bead release of singlet oxygen and emission was read with a bandpass filter from 520-620 nm.

[1] = tested on: human small lung cancer cell line H2171; experiment: Cell Viability Assay (ATPlite); format: cell-based; settings: H2171 cells, three days, ATPlite, calculated IC50 class, read-out: H2171 Activity
Description: Compounds of the invention were assayed for cell viability using the human small lung cancer cell line H2171 as described in the following protocol. Cells were counted and adjusted to 20,000 cells/mL. Using a Biotek EL406, 50 μL of cells in media were distributed into 384 well white plates from Thermo. Immediately after plating, compound in DMSO was distributed to plates. Compounds were added to plates using a 50 nL 384 well pin transfer manifold on a Janus workstation. Stocks were arrayed in 10 point dose response in DMSO stock in 384 well Greiner compound plates. After the addition of compounds, plates were incubated for three days in a 37° C. incubator. Cell viability was read out using ATPlite from Perkin Elmer. Lyophilized powder was resuspended in lysis buffer and diluted 1:2 with deionized water. 25 μL of this solution was added to each well using the Biotek liquid handler. Plates were incubated for 15 minutes at room temperature before signal was read on an Envision Plate Reader. The data from this assay are summarized in Tables 2 and 3 below (H2171 activity).

[2] = Homo sapiens, NCI-H2171, 72 h, Table 2, compounds of FIG. 1

T1 sequence (P01106 whole entry): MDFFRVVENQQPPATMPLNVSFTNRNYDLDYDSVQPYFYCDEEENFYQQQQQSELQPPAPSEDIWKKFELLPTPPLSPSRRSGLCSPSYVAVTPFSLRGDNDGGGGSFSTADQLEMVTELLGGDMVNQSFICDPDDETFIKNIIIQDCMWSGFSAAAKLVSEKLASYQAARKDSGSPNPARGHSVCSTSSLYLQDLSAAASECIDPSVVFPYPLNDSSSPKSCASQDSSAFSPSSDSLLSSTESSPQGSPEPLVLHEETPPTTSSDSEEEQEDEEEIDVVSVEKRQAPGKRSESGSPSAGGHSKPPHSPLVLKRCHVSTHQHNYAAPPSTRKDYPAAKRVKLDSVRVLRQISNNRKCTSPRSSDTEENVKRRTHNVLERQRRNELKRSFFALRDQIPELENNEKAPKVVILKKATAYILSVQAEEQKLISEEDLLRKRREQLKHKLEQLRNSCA

Row | IC50 (c-Myc/Max/Ebox DNA; Table 2, compounds of FIG. 1) | IC50 ([1]; Table 2, compounds of FIG. 1) | IC50 [1, 2] | Compound | other results
1 |  |  |  | CC(=O)Nc1sc2c(c1-c1nc3ccccc3s1)C[C@@H](C)N[C@H]2C (relative stereo) [Compound 206, N-(3-(benzo[d]thiazol-2-yl)-cis-5,7-dimethyl-4,5,6,7-tetrahydrothieno[2,3-c]pyridin-2-yl)acetamide] | IC50 (c-Myc/Max/Ebox DNA; Table 3, compounds of FIG. 2): 1 to 10 µM; IC50 ([1]; Table 3, compounds of FIG. 2): 1 to 10 µM
2 | < 0.3 µM | < 0.3 µM |  | CC(C)NCCC(=O)Nc1sc2c(c1-c1nc3ccccc3s1)CC(C)NC2C (single isomer, unassigned) [Compound 195, N-(3-(benzo[d]thiazol-2-yl)-5,7-dimethyl-4,5,6,7-tetrahydrothieno[2,3-c]pyridin-2-yl)-3-(isopropylamino)propanamide] | 
3 | 0.3 to 1 µM |  | < 0.3 µM | CC(C)NCCC(=O)Nc1sc2c(c1-c1nc3ccccc3s1)CC(C)NC2C (single isomer, unassigned) [Compound 196, N-(3-(benzo[d]thiazol-2-yl)-5,7-dimethyl-4,5,6,7-tetrahydrothieno[2,3-c]pyridin-2-yl)-3-(isopropylamino)propanamide] | 
4 | 1 to 10 µM | 0.3 to 1 µM |  | CC(C)NCCC(=O)Nc1sc2c(c1-c1nc3ccccc3s1)CC(C)NC2C (single isomer, unassigned) [Compound 197, N-(3-(benzo[d]thiazol-2-yl)-5,7-dimethyl-4,5,6,7-tetrahydrothieno[2,3-c]pyridin-2-yl)-3-(isopropylamino)propanamide] | 
5 | 1 to 10 µM | < 0.3 µM |  | CC(C)NCCC(=O)Nc1sc2c(c1-c1nc3ccccc3s1)CC(C)NC2C (single isomer, unassigned) [Compound 198, N-(3-(benzo[d]thiazol-2-yl)-5,7-dimethyl-4,5,6,7-tetrahydrothieno[2,3-c]pyridin-2-yl)-3-(isopropylamino)propanamide] | 
6 | 1 to 10 µM |  | < 0.3 µM | COCCNCCC(=O)Nc1sc2c(c1-c1nc3ccccc3s1)CC(C)NC2C (single isomer, unassigned) [Compound 508, N-(3-(Benzo[d]thiazol-2-yl)-5,7-dimethyl-4,5,6,7-tetrahydrothieno[2,3-c]pyridin-2-yl)-3-((2-methoxyethyl)amino)propanamide] | 
7 | 1 to 10 µM | < 0.3 µM |  | COCCNCCC(=O)Nc1sc2c(c1-c1nc3ccccc3s1)CC(C)NC2C (single isomer, unassigned) [Compound 509, N-(3-(Benzo[d]thiazol-2-yl)-5,7-dimethyl-4,5,6,7-tetrahydrothieno[2,3-c]pyridin-2-yl)-3-((2-methoxyethyl)amino)propanamide] | 
8 | < 0.3 µM |  | < 0.3 µM | COCCNCCC(=O)Nc1sc2c(c1-c1nc3ccc(-c4ccncc4)cc3s1)CC(C)NC2C (single isomer, unassigned) [Compound 517, N-(5,7-Dimethyl-3-(6-(pyridin-4-yl)benzo[d]thiazol-2-yl)-4,5,6,7-tetrahydrothieno[2,3-c]pyridin-2-yl)-3-((2-methoxyethyl)amino)propanamide] | 
9 | < 0.3 µM |  | < 0.3 µM | COCCNCCC(=O)Nc1sc2c(c1-c1nc3ccc(-c4cccnc4)cc3s1)CC(C)NC2C (single isomer, unassigned) [Compound 519, N-(5,7-Dimethyl-3-(6-(pyridin-3-yl)benzo[d]thiazol-2-yl)-4,5,6,7-tetrahydrothieno[2,3-c]pyridin-2-yl)-3-((2-methoxyethyl)amino)propanamide] | 
10 | 1 to 10 µM | 0.3 to 1 µM |  | COCCNCCC(=O)Nc1sc2c(c1-c1nc3ccc(-c4cccnc4)cc3s1)CC(C)NC2C (single isomer, unassigned) [Compound 520, N-(5,7-Dimethyl-3-(6-(pyridin-3-yl)benzo[d]thiazol-2-yl)-4,5,6,7-tetrahydrothieno[2,3-c]pyridin-2-yl)-3-((2-methoxyethyl)amino)propanamide] | 
11 | < 0.3 µM |  | < 0.3 µM | COCCNCCC(=O)Nc1sc2c(c1-c1nc3cc(-c4ccncc4)ccc3s1)CC(C)NC2C (single isomer, unassigned) [Compound 521, N-(5,7-dimethyl-3-(5-(pyridin-4-yl)benzo[d]thiazol-2-yl)-4,5,6,7-tetrahydrothieno[2,3-c]pyridin-2-yl)-3-((2-methoxyethyl)amino)propanamide] | 
12 | < 0.3 µM | < 0.3 µM |  | COCCNCCC(=O)Nc1sc2c(c1-c1nc3cc(-c4ccncc4)ccc3s1)CC(C)NC2C (single isomer, unassigned) [Compound 522, N-(5,7-dimethyl-3-(5-(pyridin-4-yl)benzo[d]thiazol-2-yl)-4,5,6,7-tetrahydrothieno[2,3-c]pyridin-2-yl)-3-((2-methoxyethyl)amino)propanamide] | 
13 | 1 to 10 µM | 0.3 to 1 µM |  | COCCNCCC(=O)Nc1sc2c(c1-c1nc3cc(-c4ccncc4)ccc3s1)CC(C)NC2C (single isomer, unassigned) [Compound 523, N-(5,7-dimethyl-3-(5-(pyridin-4-yl)benzo[d]thiazol-2-yl)-4,5,6,7-tetrahydrothieno[2,3-c]pyridin-2-yl)-3-((2-methoxyethyl)amino)propanamide] | 
14 | < 0.3 µM |  | 0.3 to 1 µM | COCCNCCC(=O)Nc1sc2c(c1-c1nc3cc(-c4cccnc4)ccc3s1)CC(C)NC2C (single isomer, unassigned) [Compound 524, N-(5,7-Dimethyl-3-(5-(pyridin-3-yl)benzo[d]thiazol-2-yl)-4,5,6,7-tetrahydrothieno[2,3-c]pyridin-2-yl)-3-((2-methoxyethyl)amino)propanamide] | 
15 | < 0.3 µM | < 0.3 µM |  | COCCNCCC(=O)Nc1sc2c(c1-c1nc3cc(-c4cccnc4)ccc3s1)CC(C)NC2C (single isomer, unassigned) [Compound 525, N-(5,7-Dimethyl-3-(5-(pyridin-3-yl)benzo[d]thiazol-2-yl)-4,5,6,7-tetrahydrothieno[2,3-c]pyridin-2-yl)-3-((2-methoxyethyl)amino)propanamide] | 
16 |  | < 0.3 µM |  | CCC(C)NCCC(=O)Nc1sc2c(c1-c1nc3cc(C(F)(F)F)ccc3s1)CCN(C(C)C)C2 (centres unmarked) [Compound 146, 3-(sec-butylamino)-N-(6-isopropyl-3-(5-(trifluoromethyl)benzo[d]thiazol-2-yl)-4,5,6,7-tetrahydrothieno[2,3-c]pyridin-2-yl)propanamide] | 
17 |  |  | > 10 µM | CCOC(=O)CNCCC(=O)Nc1sc2c(c1-c1nc3ccccc3s1)CCNC2 [Compound 148, Ethyl (3-((3-(benzo[d]thiazol-2-yl)-4,5,6,7-tetrahydrothieno[2,3-c]pyridin-2-yl)amino)-3-oxopropyl)glycinate hydrochloride] | 
18 |  |  | 1 to 10 µM | CCC(C)NCCC(=O)Nc1sc2c(c1-c1nc3cc(I)ccc3s1)CCN(C(C)C)C2 (centres unmarked) [Compound 162, 3-(sec-butylamino)-N-(3-(5-iodobenzo[d]thiazol-2-yl)-6-isopropyl-4,5,6,7-tetrahydrothieno[2,3-c]pyridin-2-yl)propanamide dihydrochloride] | 
19 |  |  | < 0.3 µM | CC(C)N1CCc2c(sc(NC(=O)CCNC3CCCC3)c2-c2nc3ccccc3s2)C1 [Compound 542, N-(3-(Benzo[d]thiazol-2-yl)-6-isopropyl-4,5,6,7-tetrahydrothieno[2,3-c]pyridin-2-yl)-3-(cyclopentylamino)propanamide] | IC50 ([1]; Table 2, compounds of FIG. 1, listed as 111): 1 to 10 µM
20 |  | < 0.3 µM |  | CCC(C)NCCC(=O)Nc1sc2c(c1-c1nc3ccccc3s1)CCNC2 (centres unmarked) [Compound 607, N-(3-(benzo[d]thiazol-2-yl)-4,5,6,7-tetrahydrothieno[2,3-c]pyridin-2-yl)-3-(sec-butylamino)propanamide] | 

Row | Compound | IC50 (c-Myc/Max/Ebox DNA; Table 2, compounds of FIG. 1) | IC50 ([1]; Table 2, compounds of FIG. 1) | IC50 [1, 2] | other results
21 | 3-(Azetidin-1-yl)-N-(3-(benzo[d]thiazol-2-yl)-6-isopropyl-4,5,6,7-tetrahydrothieno[2,3-c]pyridin-2-yl)propanamide [Compound 541] | 0.3 to 1 µM | 1 to 10 µM |  | 
